Series [1] relates to influenza A/HK/68. Also noted: species or system ICR mice. The conditions noted are these: mouse, in vivo.
In another series the test system is E.G7 (OVA) cells. The conditions noted are these: s.c. 25 μg OVA in AGP preparation, spleen cells 21 days later.
Series [2] deals with influenza A/HK/68. Also noted: species or system ICR mice. The conditions noted are these: mouse, in vivo. The source holds these as a separate data set.
The test system of a further series is IL-1β. The series can be described thus: Cytokine induction in human whole blood ex vivo culture: IL-1β (ELISA). It is filed as cell-based. Conditions: 4 hr. Summed up: (§1)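 Compounds in 10% EtOH-water added at 1:10 to human whole blood, 4 hr at 37° C with rotation; RPMI-treated controls. After PBS dilution and centrifugation, supernatant TNF-α and IL-1β measured by ELISA.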

For series [3], the system named is influenza A/HK/68. It is filed as in vivo, ICR mice. Conditions: mouse, in vivo.
Series [4] concerns influenza A/HK/68. It is filed as in vivo, BALB/c mice. The conditions noted are these: mouse, in vivo.
In another series the test system is TNF-α. In words: Cytokine induction in human whole blood ex vivo culture: TNF-α (ELISA). It is filed as cell-based. The conditions noted are these: 4 hr. In outline: as §1
For series [5], the system named is tetanus toxoid. The conditions noted are these: mouse, in vivo, sc.
Series [6] has as its system influenza A/HK/68. The conditions noted are these: mouse, in vivo.
Series [7] has as its system hepatitis B surface antigen (HBsAg). In words: Anti-HBsAg antibody titer with AGP-SE (ELISA plates coated with HBsAg or p72 peptide). The conditions noted are these: sera day 28 post 2°, 25 μg AGP-SE.
Series [8] relates to tetanus toxoid. Conditions: mouse, in vivo.
Series [9] deals with hepatitis B surface antigen (HBsAg). In words: Vaginal wash anti-HBsAg antibody after intranasal HBsAg + AGP-AF. It is filed as in vivo, BALB/c mice. The conditions noted are these: 10 days after the booster immunization; intranasal HBsAg + 10 μg AGP-AF. The source says:
Vaginal samples were collected 10 days after the booster immunization and assayed for anti-HBsAg antibody.

The test system is the same in series [10]. In words: Serum anti-HBsAg antibody titers after intranasal HBsAg + AGP-AF (ELISA). The class given is in vivo, BALB/c mice. Conditions: for Anti HBsAg Titer^−1 IgG1 / Anti HBsAg Titer^−1 IgG2a: K = 10^3.
For series [11], the system named is influenza A/HK/68. In words: Second intranasal influenza vaccine experiment with aqueous AGP and MPL formulations: vaginal, tracheal wash and serum titers, protection. It is filed as in vivo, BABL/c mice.
Series [12] can be described thus: Fever response in rabbits (pyrogenicity). Conditions: 10 ug/kg; cumulative rise ≥1.5 degree in three rabbits is considered pyrogenic. The class given is in vivo. As for the experimental part:
The AGP compounds were also evaluated for their tendency to induce a fever response in rabbits. Each compound was formulated in 10% (v/v) ethanol/water solution at 100 mg/ml, then diluted with D5W to the desired concentration. The material was injected at 3 ml/kg body weight into 3 rabbits. The rise in core temperature of the rabbits was recorded.

Where [13] appears, read: ELISA plates coated with p72 peptide.
Setting [14] is: day 22 post 2°, HBsAg + 10 μg AGP-AF intranasally.
Setting [15] is: serum, day 21 post 3°, intranasal HBsAg + 10 μg AGP-AF.

Several values for one entry are separate records, joined by “and”; a condition that tells them apart may be missing. Equal entries are not always repeated. Where two headings read alike, the source gives them in different places. A value given as a limit tells only on which side of the number the result lay.

Turning to “N-[(R)-3-decanoyloxytetradecanoyl]-O-[2-deoxy-4-O-phosphono-2-[(R)-3-decanoyloxytetradecanoylamino]-3-O-[(R)-3-decanoyloxytetradecanoyl]-β-D-glucopyranosyl]-D-serine Triethylammonium Salt [B14]”, the “Anti-influenza Titer^−1 Total IgG” value came to 6400 in the series on influenza A/HK/68 [1] and 3200 in the series on influenza A/HK/68 [4]. Besides, the “Percent Survival” value with influenza A/HK/68 [1] is given as 44%; with influenza A/HK/68 [3], 30%; in the series on influenza A/HK/68 [4], 87.5%. Besides, the “% Cytotoxicity” value is 25% in the series on E.G7 (OVA) cells (E:T 12.5:1), 36% in the series with E.G7 (OVA) cells (E:T 25:1) and 45% in the series on E.G7 (OVA) cells (E:T 50:1). Further, the “IgG Titer-1 post 1°” value in the series on influenza A/HK/68 [2] amounted to 800. In addition, in the series on influenza A/HK/68 [2], the “IgG Titer-1 post 2°” value is 51,200. Besides, the “Percent Survival post 1°” value in the series on influenza A/HK/68 [2] stood at 33%. Moreover, the “Percent Survival post 2°” value in the series with influenza A/HK/68 [2] was found to be 70%. Besides, the IL-1β in the series on IL-1β (Dosage 500 ng/ml, Table 17) turned out to be 19.9 pg/mL; in the series on IL-1β (Dosage 1000 ng/ml, Table 16), 46 pg/mL; in the series with IL-1β (Dosage 1000 ng/ml, Table 17), 10.0 pg/mL; in the series on IL-1β (Dosage 5000 ng/ml, Table 16) it was 71 pg/mL; in the series with IL-1β (Dosage 5000 ng/ml, Table 17) it was 19.0 pg/mL; with IL-1β (Dosage 10,000 ng/ml, Table 16) it was 91 pg/mL. This substance also returned an IL-1β in the series with IL-1β (Dosage 10,000 ng/ml, Table 17) of 24.6 pg/mL. Moreover, the “Titer^−1 IgG1” value with influenza A/HK/68 [3] was 1600. In addition, in the series with influenza A/HK/68 [3], the “Titer^−1 IgG2a” value worked out at 100. For the same substance, the “Titer^−1 IgG2b” value in the series on influenza A/HK/68 [3] is 400. Also, the “Titer^−1 Total IgG” value with influenza A/HK/68 [3] is given as 800. In addition, the “Anti-influenza Titer^−1 IgG1” value in the series with influenza A/HK/68 [4] amounted to 6400. Besides, the “Anti-influenza Titer^−1 IgG2a” value in the series with influenza A/HK/68 [4] amounted to 3200. In addition, the “Anti-influenza Titer^−1 IgG2b” value with influenza A/HK/68 [4] came to 6400. Also, the TNF-α amounted to 49 pg/mL in the series with TNF-α (Dosage 500 ng/ml, Table 17); 56 pg/mL with TNF-α (Dosage 1000 ng/ml, Table 16); 51 pg/mL with TNF-α (Dosage 1000 ng/ml, Table 17); 120 pg/mL in the series on TNF-α (Dosage 5000 ng/ml, Table 16); 87 pg/mL with TNF-α (Dosage 5000 ng/ml, Table 17); 249 pg/mL with TNF-α (Dosage 10,000 ng/ml, Table 16). Moreover, the TNF-α in the series with TNF-α (Dosage 10,000 ng/ml, Table 17) was 114 pg/mL.
For the substance “4-[(R)-3-Tetradecanoyloxytetradecanoylamino]butyl 2-Deoxy-4-O-phosphono-3-O-[(R)-3-tetradecanoyoxytetradecanoyl]-2-[(R)-3-tetradecanoyloxytetradecanoylamino])-β-D-glucopyranoside Triethylammonium Salt [B22]”, in the series on tetanus toxoid [5], the “Anti-tetanus toxoid IgG1 T/C” value is reported as 18.4, the “Anti-tetanus toxoid IgG1 Titer” value was 27,400, the “Anti-tetanus toxoid IgG2a T/C” value came to 345.8 and the “Anti-tetanus toxoid IgG2a Titer” value was 5,187. Moreover, in the series with tetanus toxoid [5], the “Anti-tetanus toxoid IgG2b T/C” value came to 59.6, the “Anti-tetanus toxoid IgG2b Titer” value is 3,160, the “Anti-tetanus toxoid IgM T/C” value was 0.8 and the “Anti-tetanus toxoid IgM Titer” value amounted to 440. For the same substance, in the series on tetanus toxoid [5], the “Anti-tetanus toxoid Total Ig T/C” value is recorded as 60.0 and the “Anti-tetanus toxoid Total Ig Titer” value was 19,050. Also, in the series with influenza A/HK/68 [6], the “Percent Survival” value came out at 40%, the “Titer−1 IgG1” value came out at 100, the “Titer−1 IgG2a” value is recorded as 3200 and the “Titer−1 IgG2b” value was 200. Besides, the “Titer−1 Total IgG” value in the series with influenza A/HK/68 [6] was 3200. In [7] (ELISA plates coated with HBsAg), the “Anti-HBsAg Titer^−1 HBsAg IgG1” value amounted to 1024K and the “Anti-HBsAg Titer^−1 HBsAg IgG2a” value came to 1024K. Further, in series [7] (setting [13]), the “Anti-HBsAg Titer^−1 p72-Peptide IgG1” value is listed as 128K and the “Anti-HBsAg Titer^−1 p72-Peptide IgG2a” value was 128K. Further, in the series on tetanus toxoid [8], the “Anti-Tetanus Toxoid Titer^−1 Fecal Extract IgG” value is 25 and 50; the “Anti-Tetanus Toxoid Titer^−1 Vaginal Wash IgG” value was 400 and 800. Besides, in series [9], the “Vaginal Wash Anti-HBsAg Titer^−1 IgA” value was 800 and the “Vaginal Wash Anti-HBsAg Titer^−1 IgG” value is on record as 100. Besides, in [10] (setting [14]), the “Anti HBsAg Titer^−1 IgA” value was 1,600, the “Anti HBsAg Titer^−1 IgG1” value was determined as 256K and the “Anti HBsAg Titer^−1 IgG2a” value was 64K. For the same substance, in series [10] (setting [15]), the “Anti HBsAg Titer^−1 IgG1” value is on record as 500K, the “Anti HBsAg Titer^−1 IgG2a” value is listed as 500K and the “Anti HBsAg Titer^−1 IgA” value is reported as 12,800.
Regarding “3-O-deacylated monophosphoryl lipid A [MPL®, reference compound]”, in the series on influenza A/HK/68 [11] (administered intranasally with influenza vaccine, vaginal and tracheal washes), the “mucosal adjuvant activity (in words)” value is reported as “act as mucosal adjuvants causing the production of IgA at two mucosal sites”.
For the substance “4-Hydroxy-(S)-3-[(R)-3-decanoyloxytetradecanoyl]butyl 2-Deoxy-4-O-phosphono-2-[(R)-3-decanoyloxytetradecanoylamino]-3-O-[(R)-3-decanoyltetradecanoyl]-β-D-glucopyranoside Triethylammonium Salt [B9]”, in the series with influenza A/HK/68 [1], the “Anti-influenza Titer^−1 Total IgG” value turned out to be 6400 and the “Percent Survival” value turned out to be 44%. The “% Cytotoxicity” value with E.G7 (OVA) cells (E:T 12.5:1) was found to be 36%. Moreover, the “% Cytotoxicity” value with E.G7 (OVA) cells (E:T 25:1) was 55%. Besides, the “% Cytotoxicity” value with E.G7 (OVA) cells (E:T 50:1) came out at 65%. Further, in the series on influenza A/HK/68 [2], the “IgG Titer-1 post 1°” value worked out at 6400, the “IgG Titer-1 post 2°” value is 12,800, the “Percent Survival post 1°” value turned out to be 80% and the “Percent Survival post 2°” value was found to be 50%. Besides, in the series on IL-1β (Dosage 1000 ng/ml, Table 15), the IL-1β amounted to 53 pg/mL. In the series on IL-1β (Dosage 5000 ng/ml, Table 15), the IL-1β was found to be 84 pg/mL. In the series on IL-1β (Dosage 10,000 ng/ml, Table 15), the IL-1β amounted to 96 pg/mL. In addition, in series [12], the “PYROGENICITY Total Rise ° C., 3 rabbits” value is 3.1 °C. In the series with influenza A/HK/68 [4], the “Anti-influenza Titer^−1 IgG1” value came to 1600, the “Anti-influenza Titer^−1 IgG2a” value was 3200, the “Anti-influenza Titer^−1 IgG2b” value was 800 and the “Anti-influenza Titer^−1 Total IgG” value is 1600. In addition, in the series with influenza A/HK/68 [4], the “Percent Survival” value amounted to 87.5%. In the series on TNF-α (Dosage 1000 ng/ml, Table 15), the TNF-α worked out at 145 pg/mL. In the series with TNF-α (Dosage 5000 ng/ml, Table 15), the TNF-α is 247 pg/mL. The TNF-α in the series with TNF-α (Dosage 10,000 ng/ml, Table 15) was 449 pg/mL.
Turning to “N-[(R)-3-Hexanoyloxytetradecanoyl]-O-[2-deoxy-4-O-phosphono-2-[(R)-3-hexanoyloxytetradecanoylamino]-3-O-[(R)-3-hexanoyloxytetradecanoyl]-α-D-glucopyranosyl]-L-serine Triethylammonium Salt [B34]”, in the series on influenza A/HK/68 [11] (mouse, in vivo), the “Mucosal IgA Response TW” value is reported as less than 4.6, the “Mucosal IgA Response VW” value is recorded as less than 4.6, the “Percent Protection” value is reported as 0% and the “Serum IgG Titers” value amounted to 8.4. In addition, the “PYROGENICITY Total Rise ° C., 3 rabbits” value in series [12] was 2.8 °C.
Regarding “3-Hydroxy-(S)-2-[(R)-3-nonanoyloxytetradecanoylamino]propyl 2-Deoxy-4-O-phosphono-2-[(R)-3-nonanoyloxytetradecanoylamino]-3-O-[(R)-3-nonanoyloxytetradecanoyl]-β-D-glucopyranoside Triethylammonium Salt [B7]”, the “Anti-influenza Titer^−1 Total IgG” value with influenza A/HK/68 [1] was found to be 200. For the same substance, the “% Cytotoxicity” value with E.G7 (OVA) cells (E:T 12.5:1) is 29%. In addition, the “% Cytotoxicity” value with E.G7 (OVA) cells (E:T 25:1) amounted to 44%. In addition, the “% Cytotoxicity” value in the series with E.G7 (OVA) cells (E:T 50:1) stood at 57%. In the series with influenza A/HK/68 [2], the “IgG Titer-1 post 1°” value is 3200, the “IgG Titer-1 post 2°” value is >102,400, the “Percent Survival post 1°” value came out at 60% and the “Percent Survival post 2°” value stood at 60%. For the same substance, in the series with influenza A/HK/68 [3], the “Titer−1 IgG1” value is recorded as 3200, the “Titer−1 IgG2a” value came out at 100, the “Titer−1 IgG2b” value is listed as 1600 and the “Titer−1 Total IgG” value was determined as 3200. Also, in series [12], the “PYROGENICITY Total Rise ° C., 3 rabbits” value came out at 4 °C.

Values taken from patent US7541020B2, “Aminoalkyl glucosaminide phosphate compounds and their use as adjuvants and immunoeffectors” (priority 1997, dated 2009).
